Data on 19 compounds can be found in patent US10323018B2 (Millennium Pharmaceuticals, Inc., priority 2015, dated 2019).

SMILES strings stand for the structures.

For data set [1], the target named is hNAMPT protein (Homo sapiens (Human), UniProt P43490). Put plainly: NAMPT enzyme assay (TR-FRET/HTRF with BodiPY ligand). In kind it is binding. The settings on record: for IC50: NAMPT inhibition, IC50 range class. In a few lines:
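Ligand displacement by TR-FRET: BodiPY emission (520 nm) over terbium (486 nm) after 320 nm excitation. Compound, BodiPY ligand, hNAMPT and anti-6His-Tb incubated 1 h at room temperature, dark, at pH 7.5. Percent inhibition computed versus DMSO; concentration-response curves fitted for IC50.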

Data set [2] relates to PC3 cells. The data set can be described thus: PC3 growth inhibition (Cell-titer glo, 72 hours). In kind it is cell-based. The settings on record: for viability at 1.667 µM: Homo sapiens, PC-3, 72 h, read-out: Percent Viability, PC3 cells, compound concentration 1.667 μM, 72 hours. The procedure, abridged: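 After 72 h compound treatment in AIM serum-free medium (37 °C, 5% CO2), viability of overnight-plated PC3 cells (8×10^4 cells/ml, RPMI1640-maintained) is read by CellTiter-Glo luminescence versus DMSO. Curves give GI50, LD50 or single-concentration % remaining viability.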

[3] abbreviates: NAMPT inhibition at compound concentration 1 μM, read-out: Percent Inhibition.

Sequence of hNAMPT protein (P43490 whole entry): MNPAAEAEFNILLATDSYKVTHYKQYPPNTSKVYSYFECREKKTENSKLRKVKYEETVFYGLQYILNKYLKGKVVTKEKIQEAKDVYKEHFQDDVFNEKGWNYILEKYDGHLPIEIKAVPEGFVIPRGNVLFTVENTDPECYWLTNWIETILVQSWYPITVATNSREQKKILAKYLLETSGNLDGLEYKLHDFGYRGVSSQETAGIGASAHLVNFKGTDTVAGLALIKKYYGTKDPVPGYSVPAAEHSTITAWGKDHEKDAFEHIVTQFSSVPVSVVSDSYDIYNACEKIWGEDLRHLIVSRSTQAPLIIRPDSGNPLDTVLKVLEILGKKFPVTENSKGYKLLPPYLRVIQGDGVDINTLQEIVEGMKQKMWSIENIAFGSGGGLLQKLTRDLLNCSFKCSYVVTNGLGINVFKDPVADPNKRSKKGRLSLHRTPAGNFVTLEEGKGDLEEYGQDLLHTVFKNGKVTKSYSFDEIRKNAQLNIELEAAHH

For the compound `CCOc1cc(-c2ccc(F)cc2)nc2cc(C(=O)NCc3ccn4ncnc4c3)ccc12` [Compound I-130, 4-ethoxy-2-(4-fluorophenyl)-N-([1,2,4]triazolo[1,5-a]pyridin-7-ylmethyl)quinoline-7-carboxamide], the inhibition at 1 µM in data set [1] (setting [3]) was 100%. In data set [1], this compound registered an IC50 of less than 10 nM. The viability at 1.667 µM in data set [2] worked out at 2%.

In the case of `COCCOc1cc(-c2ccnc(C)c2)nc2cc(C(=O)NCc3ccn4ncnc4c3)ccc12` [Compound I-69, 4-(2-methoxyethoxy)-2-(2-methylpyridin-4-yl)-N-([1,2,4]triazolo[1,5-a]pyridin-7-ylmethyl)quinoline-7-carboxamide], the inhibition at 1 µM in data set [1] (setting [3]) was 86%. Also, the IC50 in data set [1] is more than 100 nM. Also, the viability at 1.667 µM in data set [2] amounted to 4%.

`CCOc1cc(-c2cccc(S(C)(=O)=O)c2)nc2cc(C(=O)NCCCc3nnc[nH]3)ccc12` [Compound I-137, 4-ethoxy-2-[3-(methylsulfonyl)phenyl]-N-[3-(4H-1,2,4-triazol-3-yl)propyl]quinoline-7-carboxamide]: the inhibition at 1 µM in data set [1] (setting [3]) was 97%. This compound returned an IC50 in data set [1] of 10 to 50 nM. Besides, the viability at 1.667 µM in data set [2] was 2%.

With `COc1nc(-c2ccc(Cl)cc2)nc2cc(C(=O)NCCCc3ncc[nH]3)ccc12` [Compound I-10, 2-(4-chlorophenyl)-N-[3-(1H-imidazol-2-yl)propyl]-4-methoxyquinazoline-7-carboxamide], the inhibition at 1 µM in data set [1] (setting [3]) was determined as 100%. In data set [1], the IC50 is less than 10 nM. In addition, in data set [2], the viability at 1.667 µM was determined as 1%.

In the case of `CCOc1cc(-c2ccc(F)cc2)nc2cc(C(=O)NCCCc3cncn3C)ccc12` [Compound I-224, 4-ethoxy-2-(4-fluorophenyl)-N-[3-(1-methyl-1H-imidazol-5-yl)propyl]quinoline-7-carboxamide], the inhibition at 1 µM in data set [1] (setting [3]) is more than 99%. In data set [1], this compound had a half-inhibitory concentration (IC50) of less than 10 nM. In addition, in data set [2], the viability at 1.667 µM was 2%.

With `CCOc1c(F)c(-c2ccc(F)cc2)nc2cc(C(=O)NCCCc3cnn[nH]3)ccc12` [Compound I-73, 4-ethoxy-3-fluoro-2-(4-fluorophenyl)-N-[3-(1H-1,2,3-triazol-4-yl)propyl]quinoline-7-carboxamide], the inhibition at 1 µM in data set [1] (setting [3]) was 100%. In data set [1], this compound had a half-inhibitory concentration (IC50) of less than 10 nM. The viability at 1.667 µM in data set [2] was determined as 1%.

For the compound `O=C(NCCCc1nnc[nH]1)c1ccc2c(-n3ccnc3)cc(-c3ccc(F)cc3)nc2c1` [Compound I-148, 2-(4-fluorophenyl)-4-(1H-imidazol-1-yl)-N-[3-(4H-1,2,4-triazol-3-yl)propyl]quinoline-7-carboxamide], the inhibition at 1 µM in data set [1] (setting [3]) is 99%. This compound had an IC50 in data set [1] of less than 10 nM. Moreover, the viability at 1.667 µM in data set [2] was 1%.

On to `CCOc1cc(-c2ccc(=O)n(C)c2)nc2cc(C(=O)NCCCc3cc[nH]n3)ccc12` [Compound I-123, 4-ethoxy-2-(1-methyl-6-oxo-1,6-dihydropyridin-3-yl)-N-[3-(1H-pyrazol-3-yl)propyl]quinoline-7-carboxamide], for which the inhibition at 1 µM in data set [1] (setting [3]) is more than 99%. This compound also gave an IC50 in data set [1] of 10 to 50 nM. In addition, in data set [2], the viability at 1.667 µM worked out at 2%.

As for `CCOc1cc(-c2cc(OC)ncc2F)nc2cc(C(=O)NCCCc3[nH]nnc3C)ccc12` [Compound I-68, 4-ethoxy-2-(5-fluoro-2-methoxypyridin-4-yl)-N-[3-(4-methyl-1H-1,2,3-triazol-5-yl)propyl]quinoline-7-carboxamide], the inhibition at 1 µM in data set [1] (setting [3]) came out at 92%. In data set [1], the IC50 was 10 to 50 nM. The viability at 1.667 µM in data set [2] stood at 1%.

As to `CCOc1cc(-c2ccc(F)cc2)nc2cc(C(=O)NCCc3cncn3C)ccc12` [Compound I-2, 4-ethoxy-2-(4-fluorophenyl)-N-[2-(1-methyl-1H-imidazol-5-yl)ethyl]quinoline-7-carboxamide], the inhibition at 1 µM in data set [1] (setting [3]) was more than 99%. The IC50 in data set [1] was less than 10 nM. The viability at 1.667 µM in data set [2] was 2%.

For `CCOc1cc(-c2ccc(C)nc2OC)nc2cc(C(=O)NCCCc3cnn[nH]3)ccc12` [Compound I-103, 4-ethoxy-2-(2-methoxy-6-methylpyridin-3-yl)-N-[3-(1H-1,2,3-triazol-5-yl)propyl]quinoline-7-carboxamide], in data set [1] (setting [3]), the inhibition at 1 µM is more than 99%. The compound also registered an IC50 in data set [1] of 10 to 50 nM. In addition, the viability at 1.667 µM in data set [2] is 2%.

As to `CCOc1cc(-c2ccc(F)cc2)nc2cc(C(=O)NCC3CC3c3ncc[nH]3)ccc12` (single isomer, unassigned) [Compound I-51, 4-Ethoxy-2-(4-fluorophenyl)-N-{[trans-(1,2)-2-(1H-imidazol-2-yl)cyclopropyl]methyl}quinoline-7-carboxamide], the “Percent Inhibition” value in data set [1] (NAMPT inhibition at compound concentration 1 μM) stood at 98%. In data set [1], this compound yielded an IC50 of 10 to 50 nM. Besides, in data set [2] (human, 72 h, 1.667 µM), the “Percent Viability” value is given as 4%.

Take `CCOc1cc(OCC)c2ccc(C(=O)NCCCc3ncc[nH]3)cc2n1` [Compound I-61, N-(3-(1H-Imidazol-2-yl)propyl)-2,4-diethoxyquinoline-7-carboxamide]: the inhibition at 1 µM in data set [1] (setting [3]) came out at 99%. The compound also came in with an IC50 in data set [1] of less than 10 nM. In data set [2], the viability at 1.667 µM was 2%.

Take `CCOc1cc(-c2ccnc(OC)c2Cl)nc2cc(C(=O)NCCCc3nnc[nH]3)ccc12` [Compound I-166, 2-(3-chloro-2-methoxypyridin-4-yl)-4-ethoxy-N-[3-(4H-1,2,4-triazol-3-yl)propyl]quinoline-7-carboxamide]: the inhibition at 1 µM in data set [1] (setting [3]) came to 94%. The compound also displayed an IC50 in data set [1] of 10 to 50 nM. For the same compound, in data set [2], the viability at 1.667 µM was determined as 2%.

As to `CCOc1cc(-c2ccc(C)nc2OC)nc2cc(C(=O)NCc3nc4cnccc4[nH]3)ccc12` [Compound I-174, 4-ethoxy-N-(1H-imidazo[4,5-c]pyridin-2-ylmethyl)-2-(2-methoxy-6-methylpyridin-3-yl)quinoline-7-carboxamide], the inhibition at 1 µM in data set [1] (setting [3]) was more than 99%. The same compound yielded an IC50 in data set [1] of less than 10 nM. Besides, the viability at 1.667 µM in data set [2] stood at 1%.

For `CCOc1cc(-c2ccc(F)cc2)nc2cc(C(=O)NCc3nc4ccccc4[nH]3)ccc12` [Compound I-54, N-(1H-benzimidazol-2-ylmethyl)-4-ethoxy-2-(4-fluorophenyl)quinoline-7-carboxamide], the inhibition at 0.33 µM in data set [1] (NAMPT inhibition at compound concentration 0.33 μM, read-out: Percent Inhibition) is 96%. The compound also had an IC50 in data set [1] of less than 10 nM. In data set [2], the viability at 1.667 µM stood at 94%.

For `O=C(NCCCc1ncc[nH]1)c1ccc2c(Cc3ccccc3)nc(-c3ccc(Cl)cc3)nc2c1` [Compound I-53, 4-benzyl-2-(4-chlorophenyl)-N-[3-(1H-imidazol-2-yl)propyl]quinazoline-7-carboxamide], the inhibition at 1 µM in data set [1] (setting [3]) worked out at 93%. Besides, in data set [1], the IC50 was in the range of 10 to 50 nM. Besides, the viability at 1.667 µM in data set [2] amounted to 4%.

Take `CCOc1cc(-c2ccc(F)cc2OC)nc2cc(C(=O)NCCCc3[nH]nnc3C)ccc12` [Compound I-106, 4-ethoxy-2-(4-fluoro-2-methoxyphenyl)-N-[3-(4-methyl-1H-1,2,3-triazol-5-yl)propyl]quinoline-7-carboxamide]: the inhibition at 1 µM in data set [1] (setting [3]) was found to be 100%. Besides, the IC50 in data set [1] lay within 10 to 50 nM. In addition, the viability at 1.667 µM in data set [2] was found to be 2%.

In the case of `CCOc1cc(-c2ccc(C)nc2)nc2cc(C(=O)NCCc3[nH]nnc3C)ccc12` [Compound I-77, 4-ethoxy-2-(6-methylpyridin-3-yl)-N-[2-(4-methyl-1H-1,2,3-triazol-5-yl)ethyl]quinoline-7-carboxamide], the inhibition at 1 µM in data set [1] (setting [3]) amounted to 97%. Moreover, the IC50 in data set [1] lay within 10 to 50 nM. Besides, the viability at 1.667 µM in data set [2] is 1%.
